We go through nine molecules from paper PMC7269503 (Antimicrobial Agents and Chemotherapy, 2020).

Each structure is given as a SMILES string. Converted amounts (≈) assume the structure as drawn. Like-named read-outs stand apart in the source and are kept apart here.

In assay [1] the test system is M. tuberculosis ATCC 35837 (H37Rv EMB-R). The assay is described as follows: MIC by agar proportion method, standard strain. The assay is classed as cell-based. Particulars: Mycobacterium tuberculosis.
Assay [2] has as its system M. tuberculosis ATCC 35828 (H37Rv PZA-R). The assay is described as follows: MIC by agar proportion method, standard strain. The assay is classed as cell-based. As to conditions: Mycobacterium tuberculosis.
Assay [3] relates to M. tuberculosis ATCC 27294 (H37Rv). The assay can be described thus: MIC by agar proportion method, standard strain. The assay is classed as cell-based. As to conditions: Mycobacterium tuberculosis.
The test system of assay [4] is M. tuberculosis ATCC 35822 (H37Rv INH-R). The assay can be described thus: MIC by agar proportion method, standard strain. The assay is classed as cell-based. As to conditions: Mycobacterium tuberculosis.
The next assay deals with M. bovis ATCC BAA-935. The assay is described as follows: microbe, parasite or virus in culture. The assay is classed as cell-based. Particulars: Mycobacterium tuberculosis variant bovis, ATCCBAA935.
Assay [5] deals with M. pinnipedii ATCC BAA-688. The assay is described as follows: MIC by agar proportion method, standard strain. As to conditions: ATCCBAA688. The assay is classed as cell-based.
The test system of assay [6] is M. tuberculosis ATCC 35820 (H37Rv SM-R). The assay can be described thus: MIC by agar proportion method, standard strain. The assay is classed as cell-based. As to conditions: Mycobacterium tuberculosis.
Assay [7] deals with M. tuberculosis ATCC 35838 (H37Rv RIF-R). The assay is described as follows: MIC by agar proportion method, standard strain. The assay is classed as cell-based. As to conditions: Mycobacterium tuberculosis.
The test system of assay [8] is intracellular M. tuberculosis H37Rv. The assay is described as follows: microbe, parasite or virus in culture. The assay is classed as cell-based.
Assay [9] has as its system intracellular M. tuberculosis Kurono. The assay can be described thus: microbe, parasite or virus in culture. The assay is classed as cell-based.
The test system of the next assay is M. microti ATCC 11152. The assay is described as follows: MIC by agar proportion method, standard strain. The assay is classed as cell-based. As to conditions: ATCC11152.
For assay [10], the system named is M. tuberculosis ATCC 35812 (Kurono). The assay is described as follows: MIC by agar proportion method, standard strain. The assay is classed as cell-based. Particulars: Mycobacterium tuberculosis, ATCC35812.
In the next assay the test system is M. caprae ATCC BAA-824. The assay can be described thus: MIC by agar proportion method, standard strain. The assay is classed as cell-based. As to conditions: ATCCBAA824.
The subject of the next assay is M. africanum ATCC 25420. The assay is described as follows: MIC by agar proportion method, standard strain. The assay is classed as cell-based. Particulars: ATCC25420.
In assay [11] the target is recombinant M. bovis BCG-derived DprE1 (Mycobacterium tuberculosis, UniProt P9WJF1). The assay can be described thus: biochemical.
The test system of a further assay is M. tuberculosis Kurono. The assay is classed as in vivo. Particulars: in vivo.
Setting [12] is: […], agar proportion method, read-out: MIC.
[13] abbreviates: ATCC 27294 (H37Rv), agar proportion method, […], read-out: MIC.
[14] abbreviates: M. pinnipedii ATCC BAA-688, agar proportion method, read-out: MIC.
[15] abbreviates: M. microti ATCC 11152, agar proportion method, read-out: MIC.
Where [16] appears, read: ATCC 35812 (Kurono), agar proportion method, read-out: MIC.
[17] abbreviates: M. caprae ATCC BAA-824, agar proportion method, read-out: MIC.
Where [18] appears, read: M. africanum ATCC 25420, agar proportion method, read-out: MIC.

Sequence of recombinant M. bovis BCG-derived DprE1 (P9WJF1 whole entry): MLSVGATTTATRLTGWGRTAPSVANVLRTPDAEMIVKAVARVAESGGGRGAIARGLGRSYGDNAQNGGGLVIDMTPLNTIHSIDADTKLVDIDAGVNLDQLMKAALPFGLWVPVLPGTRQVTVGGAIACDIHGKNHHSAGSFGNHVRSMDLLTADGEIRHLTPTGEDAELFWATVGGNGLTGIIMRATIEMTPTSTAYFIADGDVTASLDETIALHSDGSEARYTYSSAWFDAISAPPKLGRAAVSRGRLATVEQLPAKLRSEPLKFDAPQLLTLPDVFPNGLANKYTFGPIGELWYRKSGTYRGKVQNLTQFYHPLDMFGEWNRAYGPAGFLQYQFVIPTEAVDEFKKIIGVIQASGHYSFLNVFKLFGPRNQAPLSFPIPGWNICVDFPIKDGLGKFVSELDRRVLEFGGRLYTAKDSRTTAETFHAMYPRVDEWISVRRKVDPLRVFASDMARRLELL

For the molecule `CO[C@H]1/C=C/O[C@@]2(C)Oc3c(C)c(O)c4c(O)c(c(/C=N/N5CCN(C)CC5)c(O)c4c3C2=O)NC(=O)/C(C)=C\C=C\[C@H](C)[C@H](O)[C@@H](C)[C@@H](O)[C@@H](C)[C@H](OC(C)=O)[C@@H]1C` [RIF, rifampin], the MIC came out at 0.25 µg/mL (≈ 0.304 µM) in assay [1]; 1 µg/mL (≈ 1.22 µM) in assay [2]; 0.25 µg/mL (≈ 0.304 µM) in [3]; 0.5 µg/mL (≈ 0.608 µM) in assay [4]; 0.063 µg/mL (≈ 0.0766 µM) in the assay with M. bovis ATCC BAA-935; 0.5 µg/mL (≈ 0.608 µM) in assay [5]. The MIC in [6] was 0.25 µg/mL (≈ 0.304 µM); in [7], over 16 µg/mL; in the assay on M. microti ATCC 11152, 0.13 µg/mL (≈ 0.158 µM); in [10], 0.25 µg/mL (≈ 0.304 µM); against M. caprae ATCC BAA-824 it was 0.13 µg/mL (≈ 0.158 µM); in the assay with M. africanum ATCC 25420, 0.25 µg/mL (≈ 0.304 µM). For the same molecule, the “bactericidal activity against intracellular bacilli” value in assay [8] and in assay [9] was “killed the intracellular bacilli” throughout. In addition, the IC90 in [8] (Mycobacterium tuberculosis, H37RV, THP-1, read-out: 90% inhibitory concentration (IC90)) is 1.15 µg/mL (≈ 1.4 µM); in assay [9] (Mycobacterium tuberculosis, THP-1, read-out: 90% inhibitory concentration (IC90)) it was 0.565 µg/mL (≈ 0.686 µM).

For the molecule `NNC(=O)c1ccncc1` [INH, isoniazid], the IC50 in [11] is over 10000 nM.

With `C[C@H]1COC2(CCN(c3nc(=O)c4cc(C(F)(F)F)cc([N+](=O)[O-])c4s3)CC2)O1` [BTZ043], the half-inhibitory concentration (IC50) in [11] turned out to be 403 nM.

On to `CC(=O)NC[C@H]1CN(c2ccc(N3CCOCC3)c(F)c2)C(=O)O1` [LZD, linezolid], for which the MIC in assay [1] stood at 0.5 µg/mL (≈ 1.48 µM); in assay [2], 1 µg/mL (≈ 2.96 µM); in assay [3] it was 1 µg/mL (≈ 2.96 µM); in [4], 1 µg/mL (≈ 2.96 µM); in the assay on M. bovis ATCC BAA-935, 0.5 µg/mL (≈ 1.48 µM); in assay [5], 1 µg/mL (≈ 2.96 µM). Moreover, the MIC came out at 0.5 µg/mL (≈ 1.48 µM) in assay [6]; 0.5 µg/mL (≈ 1.48 µM) in assay [7]; 0.5 µg/mL (≈ 1.48 µM) against M. microti ATCC 11152; 1 µg/mL (≈ 2.96 µM) in assay [10]; 0.25 µg/mL (≈ 0.741 µM) in the assay on M. caprae ATCC BAA-824; 0.5 µg/mL (≈ 1.48 µM) against M. africanum ATCC 25420.

On to `COc1c(N2C[C@@H]3CCCN[C@@H]3C2)c(F)cc2c(=O)c(C(=O)O)cn(C3CC3)c12` [MXF, moxifloxacin], for which the MIC in assay [1] (setting [12]) came to 0.25 µg/mL (≈ 0.623 µM); in assay [2] (setting [12]), 0.5 µg/mL (≈ 1.25 µM); in assay [3] (setting [13]) it was 0.5 µg/mL (≈ 1.25 µM); in [4] (setting [12]), 0.25 µg/mL (≈ 0.623 µM); in the assay with M. bovis ATCC BAA-935 it was 0.13 µg/mL (≈ 0.324 µM); in [5] (setting [14]), 0.25 µg/mL (≈ 0.623 µM). Besides, the MIC in assay [6] (setting [12]) is 0.5 µg/mL (≈ 1.25 µM); in assay [7] (setting [12]), 0.25 µg/mL (≈ 0.623 µM); in the assay with M. microti ATCC 11152 (setting [15]), 0.063 µg/mL (≈ 0.157 µM); in assay [10] (setting [16]), 0.13 µg/mL (≈ 0.324 µM); with M. caprae ATCC BAA-824 (setting [17]), 0.063 µg/mL (≈ 0.157 µM); in the assay with M. africanum ATCC 25420 (setting [18]) it was 0.25 µg/mL (≈ 0.623 µM).

Take `COc1nc2ccc(Br)cc2cc1[C@@H](c1ccccc1)[C@@](O)(CCN(C)C)c1cccc2ccccc12` [BDQ, bedaquiline]: the MIC in [1] (setting [12]) stood at 0.063 µg/mL (≈ 0.113 µM); in assay [2] (setting [12]), 0.13 µg/mL (≈ 0.234 µM); in assay [3] (setting [13]) it was 0.063 µg/mL (≈ 0.113 µM); in assay [4] (setting [12]) it was 0.063 µg/mL (≈ 0.113 µM); against M. bovis ATCC BAA-935, 0.13 µg/mL (≈ 0.234 µM); in assay [5] (setting [14]) it was 0.13 µg/mL (≈ 0.234 µM). Moreover, the MIC came out at 0.063 µg/mL (≈ 0.113 µM) in [6] (setting [12]); 0.063 µg/mL (≈ 0.113 µM) in assay [7] (setting [12]); 0.063 µg/mL (≈ 0.113 µM) in the assay with M. microti ATCC 11152 (setting [15]); 0.063 µg/mL (≈ 0.113 µM) in assay [10] (setting [16]); 0.13 µg/mL (≈ 0.234 µM) in the assay on M. caprae ATCC BAA-824 (setting [17]); 0.25 µg/mL (≈ 0.45 µM) in the assay with M. africanum ATCC 25420 (setting [18]). For the same molecule, the “lung CFU compared to the vehicle group, single agent” value with M. tuberculosis Kurono is “significant decrease of lung CFU”.

For the molecule `C[C@]1(COc2ccc(N3CCC(Oc4ccc(OC(F)(F)F)cc4)CC3)cc2)Cn2cc([N+](=O)[O-])nc2O1` [DMD, delamanid], the MIC in assay [1] (setting [12]) is 0.004 µg/mL (≈ 0.00748 µM); in [2] (setting [12]), 0.004 µg/mL (≈ 0.00748 µM); in [3] (setting [13]) it was 0.004 µg/mL (≈ 0.00748 µM); in assay [4] (setting [12]), 0.004 µg/mL (≈ 0.00748 µM); in the assay with M. bovis ATCC BAA-935 it was 0.004 µg/mL (≈ 0.00748 µM); in [5] (setting [14]), 0.002 µg/mL (≈ 0.00374 µM). Also, the MIC in assay [6] (setting [12]) worked out at 0.004 µg/mL (≈ 0.00748 µM); in assay [7] (setting [12]), 0.004 µg/mL (≈ 0.00748 µM); with M. microti ATCC 11152 (setting [15]), 0.002 µg/mL (≈ 0.00374 µM); in assay [10] (setting [16]), 0.004 µg/mL (≈ 0.00748 µM); with M. caprae ATCC BAA-824 (setting [17]), 0.002 µg/mL (≈ 0.00374 µM); in the assay with M. africanum ATCC 25420 (setting [18]) it was 0.001 µg/mL (≈ 0.00187 µM). The “lung CFU compared to the vehicle group, single agent” value with M. tuberculosis Kurono is on record as “significant decrease of lung CFU”.

For `[H]/N=C(/N)N[C@H]1[C@H](O)[C@@H](O)[C@H](O[C@@H]2O[C@@H](C)[C@](O)(C=O)[C@H]2O[C@@H]2O[C@@H](CO)[C@H](O)[C@@H](O)[C@@H]2NC)[C@@H](N/C(N)=N\[H])[C@@H]1O` [STR, streptomycin], the “bactericidal activity against intracellular bacilli” value in assay [8] (H37Rv in THP-1-derived macrophage-like cells, 3 days) is recorded as “no bactericidal activity”; in [9] (Kurono in THP-1-derived macrophage-like cells, 3 days), “no bactericidal activity”.

Regarding `C[C@H]1COc2c(N3CCN(C)CC3)c(F)cc3c(=O)c(C(=O)O)cn1c23` [LVX, levofloxacin], the MIC turned out to be 0.5 µg/mL (≈ 1.38 µM) in assay [1] (setting [12]); 0.5 µg/mL (≈ 1.38 µM) in assay [2] (setting [12]); 0.5 µg/mL (≈ 1.38 µM) in assay [3] (setting [13]); 0.5 µg/mL (≈ 1.38 µM) in assay [4] (setting [12]); 0.25 µg/mL (≈ 0.692 µM) in the assay on M. bovis ATCC BAA-935; 0.25 µg/mL (≈ 0.692 µM) in [5] (setting [14]). Also, the MIC came out at 0.5 µg/mL (≈ 1.38 µM) in assay [6] (setting [12]); 0.5 µg/mL (≈ 1.38 µM) in assay [7] (setting [12]); 0.25 µg/mL (≈ 0.692 µM) in the assay on M. microti ATCC 11152 (setting [15]); 0.5 µg/mL (≈ 1.38 µM) in assay [10] (setting [16]); 0.25 µg/mL (≈ 0.692 µM) in the assay with M. caprae ATCC BAA-824 (setting [17]); 0.25 µg/mL (≈ 0.692 µM) with M. africanum ATCC 25420 (setting [18]). The “lung CFU compared to the vehicle group, single agent” value in the assay on M. tuberculosis Kurono is on record as “significant decrease of lung CFU”.

As a reminder, the IC50 is the concentration at which inhibition is half-maximal.
